# Key:
# Mu-type opioid receptor [1] = target: T1, Mu-type opioid receptor (Cavia porcellus, UniProt P97266); experiment: Agonist activity was assessed in an guinea pig ileum (GPI) smooth muscle bioassay
# Mu-type opioid receptor [2] = target: T1, Mu-type opioid receptor; experiment: Binding affinity against mu opioid receptor using [3H]DAMGO in guinea pig ileum
# T1 sequence (P97266 whole entry): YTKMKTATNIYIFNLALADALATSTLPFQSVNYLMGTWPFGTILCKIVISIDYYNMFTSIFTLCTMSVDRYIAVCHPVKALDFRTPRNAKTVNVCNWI
smiles,measurement,setting,value
"CN1C(=O)[C@H](CS)N(C(=O)[C@@H](N)Cc2ccc(O)cc2)C(=O)[C@@H](C(C)(C)S)NC(=O)[C@@H]1Cc1ccccc1 [4-[2-Amino-3-(4-hydroxy-phenyl)-propionyl]-9-benzyl-3-mercaptomethyl-6-(1-mercapto-1-methyl-ethyl)-1-methyl-[1,4,7]triazonane-2,5,8-trione]",IC50,Mu-type opioid receptor [1],> 30 µM
same,Ki,Mu-type opioid receptor [2],> 10 µM
